For one data set, the system named is E. coli Tol C. Description: Antibacterial assay (MIC), standard microtitration, Gram negative. Particulars: for MIC: Escherichia coli, read-out: Minimum Inhibitory Concentrations E. coli Tol C; for Minimum Inhibitory Concentrations E. coli Tol C: Gram negative bacteria. The data set is classed as cell-based. From the text: (§1) Test A—Antibacterial Assays
The next data set has as its system H. influenzae HI3542. The description is as above. The data set is classed as cell-based. Particulars: Gram negative bacteria; for MIC: Haemophilus influenzae, HI3542, read-out: Minimum Inhibitory Concentrations H. influenzae HI3542.
Text: as §1

The subject of another data set is M. catarrhalis BC3534. Described as above. The format is cell-based. Particulars: Gram negative bacteria; for MIC: Moraxella catarrhalis, BC3534, read-out: Minimum Inhibitory Concentrations M. catarrhalis BC3534.
Text: as §1

The test system of a further data set is E. faecalis MGH-2. Description: Antibacterial assay (MIC), standard microtitration, Gram positive. The format is cell-based. The conditions noted are these: Gram positive bacteria; for MIC: Enterococcus faecalis, MGH2, read-out: Minimum Inhibitory Concentrations E. faecalis MGH-2.
Text: as §1

In another data set the test system is S pyogenes C203. The data set is described as above. Particulars: Gram positive bacteria; for MIC: read-out: Minimum Inhibitory Concentrations S pyogenes C203. The format is cell-based.
Text: as §1

In another data set the test system is S. aureus UC-76. Described as above. The format is cell-based. Particulars: Gram positive bacteria; for MIC: Staphylococcus aureus, UC76, read-out: Minimum Inhibitory Concentrations S. aureus UC-76.
Text: as §1

In brackets after ≈: the same amount, converted by molar mass.

This is an account of results in patent publication US20050288273A1, “Antibacterial agents” (priority 2003, published 2005).

Broadly, the melting point is the temperature of the solid-liquid transition. As to `CCOC(=O)NC[C@H]1CN(c2ccc3c(c2)CCCc2cnoc2-3)C(=O)O1`, the melting point is 181 to 183 °C.
Regarding `CC(=O)NC[C@H]1CN(c2ccc3c(c2)CCCc2c-3nn(CCO)c2-c2ccncc2)C(=O)O1` [Example 209, (S)-N-{3-[2-(2-Hydroxy-ethyl)-3-pyridin-4-yl-2,4,5,6-tetrahydro-1,2-diaza-benzo[e]azulen-8-yl]-2-oxo-oxazolidin-5-ylmethyl}-acetamide], the MIC was > 64 µg/mL with E. coli Tol C; 32 µg/mL (≈ 69.3 µM) in the data set with H. influenzae HI3542; > 64 µg/mL in the data set on M. catarrhalis BC3534; 8 µg/mL (≈ 17.3 µM) in the data set with E. faecalis MGH-2; 4 µg/mL (≈ 8.67 µM) with S pyogenes C203; 16 µg/mL (≈ 34.7 µM) in the data set on S. aureus UC-76.
As to `CC(=O)NC[C@H]1CN(c2ccc3c(c2)CCCc2c(-c4ccncc4)n[nH]c2-3)C(=O)O1` [Example 96, (S)-N-[2-Oxo-3-(3-pyridin-4-yl-1,4,5,6-tetrahydro-1,2-diaza-benzo[e]azulen-8-yl)-oxazolidin-5-ylmethyl]-acetamide], the MIC with E. coli Tol C is > 64 µg/mL; in the data set with H. influenzae HI3542, 4 µg/mL (≈ 9.58 µM); in the data set on M. catarrhalis BC3534, 2 µg/mL (≈ 4.79 µM); with E. faecalis MGH-2 it was 1 µg/mL (≈ 2.4 µM); with S pyogenes C203, 0.25 µg/mL (≈ 0.599 µM); in the data set with S. aureus UC-76 it was 2 µg/mL (≈ 4.79 µM).
Regarding `O=C1O[C@@H](COc2ccon2)CN1c1ccc2c(c1)CCCc1cn[nH]c1-2` [Example 158, (R)-5-(Isoxazol-3-yloxymethyl)-3-(1,4,5,6-tetrahydro-1,2-diaza-benzo[e]azulen-8-yl)-oxazolidin-2-one], the MIC is > 64 µg/mL in the data set with E. coli Tol C; > 64 µg/mL in the data set with H. influenzae HI3542; 8 µg/mL (≈ 21.8 µM) with M. catarrhalis BC3534; 2 µg/mL (≈ 5.46 µM) in the data set on E. faecalis MGH-2; 1 µg/mL (≈ 2.73 µM) with S pyogenes C203; 1 µg/mL (≈ 2.73 µM) in the data set on S. aureus UC-76.
As to `CC(=O)NC[C@H]1CN(c2ccc3c(c2)CCCc2c(C)n[nH]c2-3)C(=O)O1` [Example 99, (S)-N-[3-(3-Methyl-1,4,5,6-tetrahydro-1,2-diaza-benzo[e]azulen-8-yl)-2-oxo-oxazolidin-5-ylmethyl]-acetamide], the MIC with E. coli Tol C was > 64 µg/mL; in the data set with H. influenzae HI3542, 4 µg/mL (≈ 11.3 µM); in the data set on M. catarrhalis BC3534, 4 µg/mL (≈ 11.3 µM); with E. faecalis MGH-2 it was 1 µg/mL (≈ 2.82 µM); in the data set on S pyogenes C203, 0.5 µg/mL (≈ 1.41 µM); in the data set on S. aureus UC-76, 1 µg/mL (≈ 2.82 µM).
For `O=C(NC[C@H]1CN(c2ccc3c(c2)CCCc2cn[nH]c2-3)C(=O)O1)c1ccccc1`, the melting point lay within 105 to 125 °C.
Compound `O=C(NC[C@H]1CN(c2ccc3c(c2)CCCc2cn[nH]c2-3)C(=O)O1)C1CC1` showed a melting point of 224 to 227 °C.
As to “(S)-N-[3-(2-Benzyl-2,4,5,6-tetrahydro-1,2-diaza-benzo[e]azulen-8-yl)-2-oxo-oxazolidin-5-ylmethyl]-acetamide and (S)-N-[3-(1-Benzyl-1,4,5,6-tetrahydro-1,2-diaza-benzo[e]azulen-8-yl)-2-oxo-oxazolidin-5-ylmethyl]-acetamide [Example 123]”, in the data set on E. coli Tol C, the “Minimum Inhibitory Concentrations E. coli Tol C” value is >64 µg/mL. Moreover, in the data set on H. influenzae HI3542, the “Minimum Inhibitory Concentrations H. influenzae HI3542” value was >64 µg/mL. For the same compound, in the data set with M. catarrhalis BC3534, the “Minimum Inhibitory Concentrations M. catarrhalis BC3534” value is >64 µg/mL.
With `Cl.NC[C@H]1CN(c2ccc3c(c2)CCCc2cnoc2-3)C(=O)O1`, the melting point fell in the range of 245 to 258 °C.
`CC(C)C(=O)NC[C@H]1CN(c2ccc3c(c2)CCCc2cnn(C(=O)C(C)C)c2-3)C(=O)O1`: the melting point lay within 75 to 80 °C.
Regarding `O=C(NC[C@H]1CN(c2ccc3c(c2)CCCc2cnn(C(=O)c4ccccc4)c2-3)C(=O)O1)c1ccccc1`, the melting point is 75 to 95 °C.
Consider `CC(=O)NC[C@H]1CN(c2ccc3c(c2)CCCc2c(C(F)(F)F)n[nH]c2-3)C(=O)O1` [Example 97, (S)-N-[2-Oxo-3-(3-trifluoromethyl-1,4,5,6-tetrahydro-1,2-diaza-benzo[e]azulen-8-yl)-oxazolidin-5-ylmethyl]-acetamide], for which the MIC was > 64 µg/mL in the data set with E. coli Tol C; > 4 µg/mL with H. influenzae HI3542; 2 µg/mL (≈ 4.9 µM) in the data set with M. catarrhalis BC3534; 1 µg/mL (≈ 2.45 µM) in the data set on E. faecalis MGH-2; 0.5 µg/mL (≈ 1.22 µM) in the data set with S pyogenes C203; 1 µg/mL (≈ 2.45 µM) with S. aureus UC-76.
As for `CC(=O)NC[C@H]1CN(c2ccc3c(c2)-c2oncc2CCC3)C(=O)O1` [Example 4, (S)-N-[3-(5,6-dihydro-4H-1-oxa-2-aza-benzo[e]azulen-9-yl)-2-oxo-oxazolidin-5-ylmethyl]acetamide], the MIC with E. coli Tol C was > 64 µg/mL; in the data set with H. influenzae HI3542, 2 µg/mL (≈ 5.86 µM); in the data set with M. catarrhalis BC3534 it was 1 µg/mL (≈ 2.93 µM); in the data set on E. faecalis MGH-2 it was 0.25 µg/mL (≈ 0.732 µM); with S pyogenes C203, 0.125 µg/mL (≈ 0.366 µM); in the data set with S. aureus UC-76, 0.5 µg/mL (≈ 1.46 µM).
`COC(=O)NC[C@H]1CN(c2ccc3c(c2)CCCc2cn[nH]c2-3)C(=O)O1` came in with a melting point of 87 to 93 °C.
For the compound `Br.CC(=O)NC[C@H]1CN(c2ccc3c(c2)CCCc2sc(N)nc2-3)C(=O)O1` [Example 186, (S)-N-[3-(2-Amino-5,6-dihydro-4H-3-thia-1-aza-benzo[e]azulen-8-yl)-2-oxo-oxazolidin-5-ylmethyl]-acetamide hydrobromic acid salt], the MIC in the data set on E. coli Tol C is > 64 µg/mL; in the data set with H. influenzae HI3542 it was 4 µg/mL; in the data set with M. catarrhalis BC3534, 8 µg/mL; in the data set on E. faecalis MGH-2, 1 µg/mL; in the data set with S pyogenes C203, 1 µg/mL; with S. aureus UC-76 it was 2 µg/mL.
In turn, `COC(=O)NC[C@H]1CN(c2ccc3c(c2)CCCc2cnoc2-3)C(=O)O1` came in with a melting point of 166 to 168 °C.
Turning to `CC(=O)NC[C@H]1CN(c2ccc3c(c2)-c2[nH]ncc2CCC3)C(=O)O1` [Example 1, (S)-N-[2-Oxo-3-(1,4,5,6-tetrahydro-1,2-diaza-benzo[e]azulen-9-yl)oxalidin-5-ylmethyl]acetamide], the “Minimum Inhibitory Concentrations E. coli Tol C” value in the data set on E. coli Tol C was >64 µg/mL. For the same compound, the “Minimum Inhibitory Concentrations H. influenzae HI3542” value with H. influenzae HI3542 was >64 µg/mL. Also, the “Minimum Inhibitory Concentrations M. catarrhalis BC3534” value in the data set on M. catarrhalis BC3534 is >64 µg/mL. Further, in the data set with E. faecalis MGH-2, the “Minimum Inhibitory Concentrations E. faecalis MGH-2” value is >64 µg/mL. Also, in the data set on S pyogenes C203, the “Minimum Inhibitory Concentrations S pyogenes C203” value was >64 . . . μg/mL. Moreover, in the data set on S. aureus UC-76, the “Minimum Inhibitory Concentrations S. aureus UC-76” value is >64 µg/mL.
Compound `Cl.NC[C@H]1CN(c2ccc3c(c2)CCCc2cn[nH]c2-3)C(=O)O1` gave a melting point of 201 to 223 °C.
`O=C(NC[C@H]1CN(c2ccc3c(c2)CCCc2cnoc2-3)C(=O)O1)C1CC1` yielded a melting point of 211 to 215 °C.
On the same count and under the same terms, as for `O=C(CC1CC1)NC[C@H]1CN(c2ccc3c(c2)CCCc2cn[nH]c2-3)C(=O)O1`, the figure is 212 to 215 °C.
Turning to `CCC(=O)NC[C@H]1CN(c2ccc3c(c2)CCCc2cnoc2-3)C(=O)O1`, the melting point was 185 to 186 °C.
Same read-out and setting: as for `O=C(CC1CCCC1)NC[C@H]1CN(c2ccc3c(c2)CCCc2cn[nH]c2-3)C(=O)O1`, the figure is 205 to 208 °C; as for `O=C(CC(F)(F)F)NC[C@H]1CN(c2ccc3c(c2)CCCc2cnoc2-3)C(=O)O1`, 150 to 186 °C.
In turn, `O=C(CC(F)(F)F)NC[C@H]1CN(c2ccc3c(c2)CCCc2cn[nH]c2-3)C(=O)O1` displayed a melting point of 243 to 245 °C.
The compound `O=C(CC1CCCC1)NC[C@H]1CN(c2ccc3c(c2)CCCc2cnn(C(=O)CC4CCCC4)c2-3)C(=O)O1` showed a melting point of 165 to 167 °C.
In turn, `CC(C)(C)OC(=O)NC[C@H]1CN(c2ccc3c(c2)CCCc2cnoc2-3)C(=O)O1` came in with a melting point of 180 to 184 °C.
Still for that read-out and setting: in the case of `CCOC(=O)NC[C@H]1CN(c2ccc3c(c2)CCCc2cn[nH]c2-3)C(=O)O1` it was 122 to 126 °C; in that of `O=C(NC[C@H]1CN(c2ccc3c(c2)CCCc2cn[nH]c2-3)C(=O)O1)C(F)F`, 147 to 150 °C.
With `O=C(CC1CC1)NC[C@H]1CN(c2ccc3c(c2)CCCc2cnoc2-3)C(=O)O1`, the melting point was in the range of 187 to 191 °C.
Compound `CC(=S)NC[C@H]1CN(c2ccc3c(c2)CCCc2cnoc2-3)C(=O)O1` had a melting point of 185 to 195 °C.
The compound `COC(=O)CC(=O)NC[C@H]1CN(c2ccc3c(c2)CCCc2cnoc2-3)C(=O)O1` showed a melting point of 205 to 217 °C.
As for `O=C(NC[C@H]1CN(c2ccc3c(c2)CCCc2cnoc2-3)C(=O)O1)C(F)F`, the melting point lay in the range of 145 to 180 °C.
The compound `CN(C)/C=C1/CCCc2cc(N3C[C@H](CNC(=O)OC(C)(C)C)OC3=O)ccc2C1=O` (stereo in doubt) registered a melting point of 157 to 160 °C.
`CCC(=O)NC[C@H]1CN(c2ccc3c(c2)CCCc2cn[nH]c2-3)C(=O)O1`: the melting point lay in the range of 233 to 235 °C.
The same measure, in the same setting: in the case of `CCNC(=O)NC[C@H]1CN(c2ccc3c(c2)CCCc2cnoc2-3)C(=O)O1` it was 193 to 196 °C.
In turn, `O=C1O[C@@H](CNC(=O)C(F)(F)F)CN1c1ccc2c(c1)CCCc1cnoc1-2` (stereo in doubt) came in with a melting point of 203 to 205 °C.
Same read-out and setting: as for `CC(C)C(=O)NC[C@H]1CN(c2ccc3c(c2)CCCc2cnoc2-3)C(=O)O1`, the figure is 187 to 193 °C; as for `O=C(NC[C@H]1CN(c2ccc3c(c2)CCCc2cnoc2-3)C(=O)O1)c1ccccc1`, 240 to 245 °C; as for `CC(=S)NC[C@H]1CN(c2ccc3c(c2)CCCc2cn[nH]c2-3)C(=O)O1`, 190 to 195 °C.
On to `O=C(CC1CCCC1)NC[C@H]1CN(c2ccc3c(c2)CCCc2cnoc2-3)C(=O)O1`, for which the melting point lay within 193 to 195 °C.
`O=C1O[C@@H](COc2ccon2)CN1c1ccc2c(c1)CCCc1cnoc1-2` [Example 159, (R)-3-(5,6-Dihydro-4H-1-oxa-2-aza-benzo[e]azulen-8-yl)-5-(isoxazol-3-yloxymethyl)-oxazolidin-2-one]: the MIC with E. faecalis MGH-2 worked out at 2 µg/mL (≈ 5.44 µM); with S pyogenes C203 it was 2 µg/mL (≈ 5.44 µM); in the data set on S. aureus UC-76, 4 µg/mL (≈ 10.9 µM).
